In patent US20240317735A1, “HYDROISOQUINOLINE OR HYDRONAPHTHYRIDINE COMPOUNDS FOR THE TREATMENT OF AUTOIMMUNE DISEASE” (Hoffmann-La Roche Inc., priority 2020, published 2024):
Read-outs that look alike come from different tables or passages of the source.

Tests used:
[1] = Single dose pharmacokinetics (PK) study in male Wister-Han rats; format: in vivo, rat; settings: for F: dose normalized AUC0-last PO 10 mg/kg vs IV 2 mg/kg; for AUC(0-t) / Cmax / clearance / half-life / Vd: rat, plasma; for Vd: read-out: Vss
Procedure: Pharmacokinetic properties of selected compounds were assessed by single dose PK studies in Male Wister-Han Rats (vendor: Beijing Vital River Laboratory Animal Technology Co., Ltd). Briefly, two groups of animals were administered a single dose of respective compound intravenously (IV, bolus) at 2 mg/kg or orally (PO, by gavage) at 10 mg/kg. Blood samples (approximately 150 μL) were collected via Jugular vein at 5 min (only for IV), 15 min, 30 min, 1 h, 2 h, 4 h, 7 h and 24 h post-dose. Blood samples were placed into tubes containing EDTA-K2 anticoagulant and centrifuged at 3000 rpm for 15 min at 4° C. to separate plasma from the samples. After centrifugation, the resulting plasma was transferred to clean tubes for bioanalysis with LC/MS/MS. The pharmacokinetic parameters were calculated using non-compartmental analysis. The volume of distribution (Vss), half-life (T1/2) and clearance (CL) were obtained based on the plasma concentration-time curve after IV dose. The peak concentration (Cmax) was recorded directly from experimental observations after PO dose. The area under the plasma concentration-time curve (AUC0-last) was calculated using the linear trapezoidal rule up to the last detectable concentration. The bioavailability (F) was calculated based on the dose normalized AUC0-last after IV and PO dose.
The Vss of a drug represents the degree to which a drug is distributed in body tissue rather than the plasma. Vss is directly proportional with the amount of drug distributed into tissue. A higher Vss indicates a greater amount of tissue distribution.

[2] = tested on: Balb/c 3T3 mouse fibroblasts; experiment: 3T3 in vitro phototoxicity assay (Neutral Red uptake); format: cell-based; settings: for Phototoxicity factor: IC50 without vs with UV-A exposure, cut-off factor >5; for IC50: Mus musculus, BALB/c3T3, light or radiation study, 3T3 fibroblasts, approx. 5 J/cm^2 UVA, Neutral Red uptake
From the text: Phototoxicity is defined as a toxic response that is elicited after the first exposure of the skin to certain chemicals and subsequent exposure to light, or that is induced similarly by skin irradiation after systemic administration of a chemical substance. The assay used in this study is designed to detect the phototoxic potential of a chemical by using a simple in vitro cytotoxicity assay with Balb/c 3T3 mouse fibroblasts. The principle of this test is a comparison of the cytotoxicity of a chemical when tested with and without exposure to a non-toxic dose of UVA-light. Cytotoxicity is expressed as a dose dependent reduction of the growth rate of cells as determined by uptake of the vital dye Neutral Red one day after treatment.
A small amount of substance was weighed and formulated freshly in DMSO just before the start of the exposure of the cells. This stock solution or appropriate dilutions with DMSO were added to the cell suspensions to obtain the required final concentrations. All solutions were generally prepared in Eppendorf caps and discarded after use.
• Chlorpromazine (HCL) (Sigma, Batch/Lot No.: 120M1328V), test concentration: 300 μg/mL, Solvent: PBS/3% DMSO
For this study the Neutral Red uptake (NRU) assay of Borenfreund and Puerner (Borenfreund, E, Puerner J A. Toxicity determined in vitro by morphological alterations and Neutral Red absorption. Toxicology Lett. 1985; 24:119-124) modified according to INVITTOX protocol No 78 (ERGATT/FRAME data bank of in vitro techniques in toxicology. INVITTOX PROTOCOL No 78. 3T3 NRU Phototoxicity Assay. March 1994) has been adapted to examine a possible phototoxic potential of the test item. This assay is based on the active uptake of the Neutral Red dye into the lysosomes of cultured murine fibroblasts. Because lysosomal membranes are known to be a site of action of many phototoxic compounds, this assay can provide a measure of potential for phototoxic injury.
A murine fibroblasts clone A 31 (ATCC no. CCL 163—passage No. 108) were cultured in 175 cm^2 tissue culture grade flasks, containing sDMEM (Dulbecco's […] Essential Medium, supplemented with 10% fetal calf serum, 2 mM L-glutamine, 100 units/ml Penicillin and 100 μg/ml streptomycin) at 37° C. in a humidified atmosphere of 6% CO2. Before cells approach confluence they were removed from flasks by trypsinisation. Prior to use in an assay, the cells were transferred to 96-well microtiter plates at a concentration of 1×10^4 cells/well in 100 μl volumes of sDMEM and allowed to attach for 24 h.
For incubation with murine fibroblasts, the test item was diluted in PBS/3% DMSO (detailed concentrations see in results).
Culture medium (Dulbecco's Modified Eagle Medium(DMEM), GlutaMAX (Gibco Ref 21885-025), 10% Fetal Bovine Serum (FBS) (Gibco Ref 10270-106), 1001U/ml Penicillin and 100 μg/mL Streptomycin (Gibco Ref 15140-122)) was removed from the wells and murine fibroblasts were washed with PBS. Afterwards 100 μL of PBS/3% DMSO containing the test item was added and target cells were incubated for 1 h at 37° C. with 6% CO2.
For each test item the microtiter plates were prepared according to Table 6. “UVA plates” were exposed to approx. 5 J/cm^2 UVA light, the “Dark plates” were kept in the dark and served as cytotoxicity control. Plates with chlorpromazine hydrochloride served as positive control. UV flux was measured with a UV-meter (Dr. Gröbel RM21).
Following UV irradiation, the test item was removed from the wells (one washing step with PBS) and replaced with sDMEM. Target cells were then incubated overnight at 37° C. in 6% CO2.
Each plate contained wells with cells and solvent but without test item which were either not incubated with Neutral Red solution (0% standard—S1) or were stained with Neutral Red (100% standard—S2) for calculation of the standard cell viability curve. Wells labeled with U01-U08 contained the different test item concentrations. […]

[3] = IV 2 mg/kg, read-out: IV AUC0-last
[4] = PO 10 mg/kg, read-out: PO AUC0-last

| SMILES | F [1] [%] | AUC(0-t) [1, 3] [ng·h/mL] | Cmax ([1]; PO 10 mg/kg) [ng/mL] | AUC(0-t) [1, 4] [ng·h/mL] | clearance ([1]; IV 2 mg/kg) [mL/min/kg] | half-life ([1]; IV 2 mg/kg) [h] | Vd ([1]; IV 2 mg/kg) [L/kg] | Phototoxicity factor [2] | IC50 [2] [µg/mL] |
| --- | --- | --- | --- | --- | --- | --- | --- | --- | --- |
| C[C@H]1CN(c2ccnc3c2cnn3C)Cc2ccc(N3CCNCC3)cc21 [Example 1, (4R)-4-methyl-2-(1-methylpyrazolo[3,4-b]pyridin-4-yl)-6-piperazin-1-yl-3,4-dihydro-1H-isoquinoline] | 113 | 1290 | 474 | 7270 | 24 | 6.9 | 11.2 | – | – |
| Cn1ncc2c(N3CCc4cc(N5CCNCC5)ccc4C3)ccnc21 [Example 3, 2-(1-methylpyrazolo[3,4-b]pyridin-4-yl)-6-piperazin-1-yl-3,4-dihydro-1H-isoquinoline] | – | – | – | – | – | – | – | 1 | > 100 |
| C[C@H]1CN(c2ccnc3c2cnn3C)Cc2ccc(OC[C@@H]3CNCCN3)cc21 [Example 19, (4R)-4-methyl-2-(1-methylpyrazolo[3,4-b]pyridin-4-yl)-6-[[(2S)-piperazin-2-yl]methoxy]-3,4-dihydro-1H-isoquinoline] | 32 | 887 | 102 | 1410 | 34 | 8.9 | 16 | – | – |
| CO[C@@H]1CN(c2ccc3c(c2)[C@@H](C)CN(c2ccnc4c2cnn4C)C3)C[C@H]1N [Example 20, (3R,4R)-4-methoxy-1-[(4R)-4-methyl-2-(1-methylpyrazolo[3,4-b]pyridin-4-yl)-3,4-dihydro-1H-isoquinolin-6-yl]pyrrolidin-3-amine] | 60 | 5480 | 1140 | 16500 | 6 | 3.3 | 1.5 | 1 | > 100 |
| CO[C@@H]1CN(c2ccc3c(c2)[C@@H](C)CN(c2cc(C)nc4c2cnn4C)C3)C[C@H]1N [Example 23, (3R,4R)-4-methoxy-1-[(4R)-2-(1,6-dimethylpyrazolo[3,4-b]pyridin-4-yl)-4-methyl-3,4-dihydro-1H-isoquinolin-6-yl]pyrrolidin-3-amine] | 73 | 7550 | 1600 | 27500 | 3.7 | 10.5 | 2.7 | – | – |
| CO[C@@H]1CN(c2ccc3c(n2)[C@@H](C)CN(c2cc(C)nc4c2cnn4C)C3)C[C@H]1N [Example 63, (3R,4R)-4-methoxy-1-[(8S)-6-(1,6-dimethylpyrazolo[3,4-b]pyridin-4-yl)-8-methyl-7,8-dihydro-5H-1,6-naphthyridin-2-yl]pyrrolidin-3-amine] | 98 | 80700 | 22200 | 394000 | 0.26 | 18.3 | 0.38 | 1 | > 100 |
